# Laboratory results as given in ChEMBL document CHEMBL1156067, “Pyrimidine-based antagonists of h-MCH-R1 derived from ATC0175: in vitro profiling and in vivo evaluation” (Bioorg Med Chem Lett, 2009).
# Activity calls are given as the source filed them. The calls are words filed in the database; no cut-off is given here.
# What was measured:
# [1] = molecular target: T1, Melanin-concentrating hormone receptor 1 (Homo sapiens, UniProt Q99705); experiment: Antagonist activity at CART form of human MCH1 receptor expressed in HEK293 cells coexpressing Galphaq assessed as inhibition of MCH-induced intracellular calcium level by FLIPR assay; format: functional, cell-based
# Target sequence in this assay (Q99705 whole entry, looked up): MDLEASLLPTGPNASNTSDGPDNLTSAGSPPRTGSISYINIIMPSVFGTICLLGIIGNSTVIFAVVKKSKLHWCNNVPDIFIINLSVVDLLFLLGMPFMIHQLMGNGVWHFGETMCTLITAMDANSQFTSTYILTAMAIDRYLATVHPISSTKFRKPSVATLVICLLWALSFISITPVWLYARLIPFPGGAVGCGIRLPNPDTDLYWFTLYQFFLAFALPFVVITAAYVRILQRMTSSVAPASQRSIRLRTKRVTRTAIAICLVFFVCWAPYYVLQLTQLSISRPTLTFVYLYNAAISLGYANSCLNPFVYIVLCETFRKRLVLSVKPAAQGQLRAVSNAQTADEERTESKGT
# Histamine H1 receptor = Histamine H1 receptor (Homo sapiens, UniProt P35367); experiment: Displacement of [3H]pyrilamine from human histamine H1 receptor
# [2] = molecular target: 5-hydroxytryptamine receptor 2B (Homo sapiens, UniProt P41595); experiment: Displacement of [3H]rauwolsine from human 5HT2B receptor
# [3] = molecular target: T2, Alpha-1A adrenergic receptor (Homo sapiens, UniProt P35348); experiment: Displacement of [3H]prazosin from human adrenergic alpha1A receptor
# T2 sequence (P35348 whole entry): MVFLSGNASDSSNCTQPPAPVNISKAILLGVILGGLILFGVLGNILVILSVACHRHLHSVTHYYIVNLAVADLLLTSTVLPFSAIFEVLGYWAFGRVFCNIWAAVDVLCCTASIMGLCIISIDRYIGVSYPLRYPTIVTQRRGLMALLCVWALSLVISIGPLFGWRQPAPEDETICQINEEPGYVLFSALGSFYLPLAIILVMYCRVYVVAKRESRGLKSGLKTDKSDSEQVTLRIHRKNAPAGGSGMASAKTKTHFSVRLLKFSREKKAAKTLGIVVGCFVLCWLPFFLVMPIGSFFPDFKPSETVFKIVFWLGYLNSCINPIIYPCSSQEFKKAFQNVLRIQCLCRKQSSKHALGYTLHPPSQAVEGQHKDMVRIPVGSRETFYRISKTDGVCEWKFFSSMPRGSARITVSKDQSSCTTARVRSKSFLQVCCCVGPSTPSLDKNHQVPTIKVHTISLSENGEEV
# [4] = molecular target: T3, Alpha-2A adrenergic receptor (Homo sapiens, UniProt P08913); experiment: Displacement of [3H]MK-912 from human adrenergic alpha2A receptor
# T3 sequence (P08913 whole entry): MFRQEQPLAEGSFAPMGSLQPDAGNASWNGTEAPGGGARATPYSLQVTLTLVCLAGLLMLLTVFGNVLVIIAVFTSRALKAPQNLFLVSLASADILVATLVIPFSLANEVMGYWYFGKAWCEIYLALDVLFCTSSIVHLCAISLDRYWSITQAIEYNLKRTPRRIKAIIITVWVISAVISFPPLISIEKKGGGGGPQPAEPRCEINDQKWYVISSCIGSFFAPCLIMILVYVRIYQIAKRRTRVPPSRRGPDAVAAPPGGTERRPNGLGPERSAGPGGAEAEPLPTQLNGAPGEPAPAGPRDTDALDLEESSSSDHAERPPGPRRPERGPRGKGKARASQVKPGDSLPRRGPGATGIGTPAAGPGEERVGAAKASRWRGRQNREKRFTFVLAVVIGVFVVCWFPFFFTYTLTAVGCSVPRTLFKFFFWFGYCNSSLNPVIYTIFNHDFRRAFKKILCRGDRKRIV
# [5] = molecular target: T1, Melanin-concentrating hormone receptor 1; experiment: Antagonist activity at CART form of human MCH1 receptor expressed in HEK293 cells coexpressing Galphaq assessed as inhibition of MCH-induced intracellular calcium level up to 10 uM by FLIPR assay; format: functional, cell-based
# Target sequence in this assay (Q99705 whole entry): as the sequence (Q99705 whole entry, looked up) above
# Rattus norvegicus [6] = experiment: Reduction in food intake in diet-induced obese Wistar rat chronic feeding model at 6 mg/kg, po once daily after 8 days; format: functional, organism-based; design: dose 6 mg/kg
# Rattus norvegicus [7] = experiment: Reduction in food intake in diet-induced obese Wistar rat chronic feeding model at 6 mg/kg, po once daily measured after 14 days; format: functional, organism-based; design: dose 6 mg/kg
# Sequence of Histamine H1 receptor (P35367 whole entry): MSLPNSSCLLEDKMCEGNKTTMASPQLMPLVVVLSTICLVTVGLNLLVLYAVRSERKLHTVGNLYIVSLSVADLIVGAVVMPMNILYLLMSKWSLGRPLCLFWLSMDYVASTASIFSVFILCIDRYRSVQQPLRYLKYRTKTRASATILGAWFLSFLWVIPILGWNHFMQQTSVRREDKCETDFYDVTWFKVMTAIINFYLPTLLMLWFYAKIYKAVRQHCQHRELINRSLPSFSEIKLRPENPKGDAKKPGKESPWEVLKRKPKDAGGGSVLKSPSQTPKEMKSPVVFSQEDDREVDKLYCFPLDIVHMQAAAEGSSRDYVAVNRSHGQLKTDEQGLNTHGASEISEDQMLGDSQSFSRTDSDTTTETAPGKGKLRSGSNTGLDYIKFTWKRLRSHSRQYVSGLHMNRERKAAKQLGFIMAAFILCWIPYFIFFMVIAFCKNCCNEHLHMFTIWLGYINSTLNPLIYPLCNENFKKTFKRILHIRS
# Sequence of 5-hydroxytryptamine receptor 2B (P41595 whole entry): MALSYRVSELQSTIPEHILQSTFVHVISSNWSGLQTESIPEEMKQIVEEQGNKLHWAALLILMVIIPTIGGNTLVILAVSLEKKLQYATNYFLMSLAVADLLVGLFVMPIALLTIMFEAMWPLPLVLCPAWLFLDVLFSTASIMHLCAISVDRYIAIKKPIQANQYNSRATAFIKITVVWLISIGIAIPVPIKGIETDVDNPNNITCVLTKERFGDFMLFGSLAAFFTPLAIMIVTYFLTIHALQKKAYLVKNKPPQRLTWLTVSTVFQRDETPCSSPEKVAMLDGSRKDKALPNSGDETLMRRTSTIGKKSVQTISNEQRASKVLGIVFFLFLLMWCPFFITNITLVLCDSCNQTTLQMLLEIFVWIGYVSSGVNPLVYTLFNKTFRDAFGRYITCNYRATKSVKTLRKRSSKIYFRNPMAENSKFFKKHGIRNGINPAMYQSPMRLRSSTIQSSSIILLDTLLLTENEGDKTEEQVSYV
Compound,IC50 [1],also measured
Cc1cc(N(C)C)nc(N[C@H]2CC[C@@H](NC(=O)c3cccc(Cl)c3)CC2)n1,6.5 nM,–
Cc1cnc(N[C@H]2CC[C@@H](NC(=O)c3ccc(F)c(F)c3)CC2)nc1N(C)C,2 nM,–
Cc1nc(N[C@H]2CC[C@@H](NC(=O)c3ccc(F)c(F)c3)CC2)nc(N(C)C)c1C,2.3 nM,–
Cc1cc(N(C)C)nc(N[C@H]2CC[C@@H](NC(=O)c3ccc(F)cc3)CC2)n1,25 nM,–
Cc1cnc(N[C@H]2CC[C@@H](CNC(=O)c3cc(Cl)cc(Cl)c3)CC2)nc1N(C)C,4 nM,–
Cc1cc(N(C)C)nc(N[C@H]2CC[C@@H](NC(=O)c3ccc(OC(F)(F)F)cc3)CC2)n1,230 nM,–
Cc1cnc(N[C@H]2CC[C@@H](CNC(=O)c3ccc(F)c(F)c3)CC2)nc1N(C)C,120 nM,IC50 (Histamine H1 receptor): 920 nM; IC50 [2]: 320 nM; IC50 [3]: 3600 nM; IC50 [4]: 210 nM
Cc1cccc(C(=O)N[C@H]2CC[C@@H](Nc3nc(C)cc(N(C)C)n3)CC2)c1,9.6 nM,–
CNc1nc(N[C@H]2CC[C@@H](CNC(=O)c3cc(C(F)(F)F)cc(C(F)(F)F)c3)CC2)ncc1C,200 nM,–
CCNc1nc(N[C@H]2CC[C@@H](NC(=O)c3ccc(F)c(F)c3)CC2)ncc1C,–,Activity [5]: inactive
CCc1cnc(N[C@H]2CC[C@@H](NC(=O)c3ccc(F)c(F)c3)CC2)nc1N(C)C,100 nM,–
COc1cccc(C(=O)N[C@H]2CC[C@@H](Nc3nc(C)cc(N(C)C)n3)CC2)c1,7.6 nM,–
CN(C)c1cc(N(C)C)nc(N[C@H]2CC[C@@H](NC(=O)c3ccc(F)c(F)c3)CC2)n1,58 nM,–
CN(C)c1ccnc(N[C@H]2CC[C@@H](NC(=O)c3ccc(F)c(F)c3)CC2)n1,–,Activity [5]: inactive
Cc1ccc(C(=O)N[C@H]2CC[C@@H](Nc3ncc(C)c(N(C)C)n3)CC2)cc1,13 nM,IC50 (Histamine H1 receptor): 170 nM; IC50 [2]: 120 nM; IC50 [3]: > 10000 nM; IC50 [4]: 1770 nM
CC(C)CC(N(C)C)C1(c2ccc(Cl)cc2)CCC1 (configuration not stated),–,Activity (Rattus norvegicus [6]): Active; Activity (Rattus norvegicus [7]): inactive
Cc1cnc(N[C@H]2CC[C@@H](NC(=O)c3ccc(F)c(F)c3)CC2)nc1NC(C)C,–,Activity [5]: inactive
Cc1cnc(N[C@H]2CC[C@@H](CNC(=O)c3cccc(C(F)(F)F)c3)CC2)nc1N(C)C,26 nM,–
